From ChEMBL document CHEMBL5346909, “Korupensamine A, but not its atropisomer, korupensamine B, inhibits SARS-CoV-2 in vitro by targeting its main protease (Mpro)” (Eur J Med Chem, 2023)

Experiments:
[1] = biological target: T1, Replicase polyprotein 1ab (Severe acute respiratory syndrome coronavirus 2, UniProt P0DTD1); assay: Inhibition of SARS CoV-2 main protease
[2] = biological target: T1, Replicase polyprotein 1ab; assay: Binding affinity to SARS CoV-2 main protease assessed as inhibition constant
SARS-CoV-2 = assay: Antiviral activity against SARS-CoV-2 infected in African green monkey Vero cells assessed as inhibition of viral replication measured after 24 hrs post infection by qRT-PCR analysis; type: functional, organism-based; conditions: Severe acute respiratory syndrome coronavirus 2, Vero
[3] = Cytotoxicity against African green monkey Vero cells incubated for 3 days by automatic cell counting method; type: toxicity, cell-based; conditions: chlorocebus sabaeus, time 3 day

In the case of `COc1cc(C)cc2c(-c3c(O)cc(O)c4c3C[C@@H](C)N[C@@H]4C)ccc(O)c12` (stereo in doubt; 1a) [KORUPENSAMINE A], the IC50 [1] is reported as 2.52 µM, the Ki [2] is reported as 1.42 µM and the EC50 (SARS-CoV-2) is reported as 4.23 µM. For the same compound, the CC50 at 72 h [3] was 35.1 µM.

In the case of `COc1cc(C)cc2c(-c3c(O)cc(O)c4c3C[C@@H](C)N[C@@H]4C)ccc(O)c12` (stereo in doubt; 1b) [KORUPENSAMINE A], the IC50 [1] is reported as 71.9 µM.
